Results published in article PMC5708365, “Histone lysine methyltransferase structure activity relationships that allow for segregation of G9a inhibition and anti-Plasmodium activity” (MedChemComm, 2017).
Where two headings read alike, the source gives them in different places. Each block holds one compound with its values, some of them ahead of it.

What was measured:
[1] = test system: P. falciparum 3D7 strain parasites; conditions: parasite-killing activity reported earlier, cited from earlier work; for IC50: read-out: Pf3D7 IC50
[2] = test system: synchronised P. falciparum parasites; assay: In vitro stage-dependent antimalarial activity; type: cell-based; conditions: 10× IC50, three distinct 12 hour periods of the intra-erythrocytic life cycle; re-invasion and out-growth
Procedure: Stage-specific compound treatment effects were elucidated using highly synchronized parasites in 48-well plates with a starting parasitemia of 0.75% and a hematocrit of 2%. […] After treatment, parasites were washed with warm RPMI 1640 medium and placed back into culture without test compound for analysis of re-invasion after completion of the cell cycle in which treatment occurred. Washed parasites after treatment were also diluted 1 : 16 and allowed to grow without compound for an additional two cell cycles (4 days). Parasitemia after re-invasion or after 4 day growth was quantified on infected cells fixed in 0.025% glutaraldehyde and stained with 2× SYBR Green I (Lonza) in PBS.

[3] = test system: H3K4me3 levels in P. falciparum 3D7 parasites; assay: Parasite histone methylation analysis (Western blot), H3K4me3; type: cell-based; conditions: 12 h treatment, relative to DMSO control
Procedure: (§1) Parasites were treated with drugs for 12 h. After treatment, infected red blood cells were collected and lysed with PBS containing 0.15% saponin. Free parasites were lysed by bath sonication in 1% SDS-PBS and analysed by Western Blot. Blots were probed with primary antibodies specific for H3K4me3 (Abcam ab1012 1 : 1000), H3 core (Abcam ab1791, 1 : 3000) and H3K9me3 (Abcam ab8898, 1 : 1000) diluted in TBS-T (50 mM Tris pH 7.5, 150 mM NaCl, 0.05% Tween-20, 5% BSA), followed by anti-mouse HRP (GE NA931V) or anti-rabbit HRP (GE NA934V) secondary antibodies.

[4] = test system: H3K9me3 levels in P. falciparum 3D7 parasites; assay: Parasite histone methylation analysis (Western blot), H3K9me3; type: cell-based; conditions: 12 h treatment, relative to DMSO control
Procedure: as §1

G9a [5] = biological target: T1, G9a (Homo sapiens, UniProt Q96KQ7); conditions: for IC50: read-out: G9a IC50
T1 sequence (Q96KQ7 1-1210): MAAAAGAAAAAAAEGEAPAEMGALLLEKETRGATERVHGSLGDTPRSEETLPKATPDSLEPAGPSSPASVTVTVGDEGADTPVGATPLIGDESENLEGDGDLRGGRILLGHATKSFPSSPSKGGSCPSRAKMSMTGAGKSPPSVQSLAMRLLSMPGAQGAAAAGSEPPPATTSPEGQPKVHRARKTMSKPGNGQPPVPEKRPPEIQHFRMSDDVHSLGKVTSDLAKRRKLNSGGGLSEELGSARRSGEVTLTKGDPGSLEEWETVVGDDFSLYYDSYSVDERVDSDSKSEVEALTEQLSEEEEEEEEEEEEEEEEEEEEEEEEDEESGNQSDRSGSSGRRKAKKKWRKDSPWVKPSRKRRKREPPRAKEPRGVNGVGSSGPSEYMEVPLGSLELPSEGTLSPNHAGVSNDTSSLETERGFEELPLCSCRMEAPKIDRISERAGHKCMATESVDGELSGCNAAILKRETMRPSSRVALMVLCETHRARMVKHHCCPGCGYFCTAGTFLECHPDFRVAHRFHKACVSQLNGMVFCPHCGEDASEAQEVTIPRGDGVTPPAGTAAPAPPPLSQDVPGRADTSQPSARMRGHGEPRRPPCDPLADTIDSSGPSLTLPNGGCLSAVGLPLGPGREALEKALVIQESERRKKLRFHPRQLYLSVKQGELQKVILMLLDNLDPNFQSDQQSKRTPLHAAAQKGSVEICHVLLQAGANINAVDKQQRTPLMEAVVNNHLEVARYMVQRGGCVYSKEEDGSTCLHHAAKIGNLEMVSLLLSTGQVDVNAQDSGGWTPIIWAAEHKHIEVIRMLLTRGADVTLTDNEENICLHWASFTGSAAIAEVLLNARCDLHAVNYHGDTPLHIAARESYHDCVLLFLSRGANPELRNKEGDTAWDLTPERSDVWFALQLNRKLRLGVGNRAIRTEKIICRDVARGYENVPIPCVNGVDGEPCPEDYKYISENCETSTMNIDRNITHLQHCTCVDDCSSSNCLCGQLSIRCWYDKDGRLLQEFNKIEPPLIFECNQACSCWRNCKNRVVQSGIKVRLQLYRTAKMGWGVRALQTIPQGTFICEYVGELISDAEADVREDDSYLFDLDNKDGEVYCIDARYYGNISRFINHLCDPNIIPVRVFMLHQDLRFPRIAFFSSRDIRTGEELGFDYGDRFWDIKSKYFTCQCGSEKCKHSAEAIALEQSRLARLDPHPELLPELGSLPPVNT

G9a [6] = biological target: T1, G9a; conditions: read-out: G9a IC50; CLOT assay; cited from earlier work
PfSET7 = assay: Initial activity assays using PfSET7; type: biochemical, P. falciparum; conditions: data not shown
HepG2 cells [7] = conditions: read-out: HepG2 IC50; Tables ST1 and ST2
HepG2 cells [8] = assay: cells; conditions: Homo sapiens, HepG2, read-out: anti-HepG2 IC50
[9] = test system: G9a activity in cells (H3K9me2 levels); conditions: reduction of H3K9me2 levels, ICW; cited from earlier work
[10] = test system: P. falciparum 3D7 strain parasites; conditions: P. falciparum 3D7, three-day SYBR Green I assay
[11] = test system: P. falciparum 3D7 strain parasites; assay: microbe, parasite or virus in culture; conditions: Plasmodium falciparum, 3D7, 72 h, read-out: Pf3D7 IC50
[12] = SPA, 5 nM G9a, H3 1-25 peptide 0.8 μM, 3H-SAM 8 μM

Structure (SMILES): COc1cc2c(NC3CCN(C)CC3)nc(N3CCCN(C)CC3)nc2cc1OCCN(C)C [compound 67]
IC50 ([1]; P. falciparum 3D7): > 2 µM

Structure (SMILES): COCCCCOc1cc2nc(N3CCCN(C)CC3)nc(NC3CCN(C)CC3)c2cc1OC [compound 71]
IC50 (G9a [6]): > 10 µM

Structure (SMILES): COc1cc2c(NC3CCN(C)CC3)nc(N3CCCN(C)CC3)nc2cc1OCCCN(C)C [compound 66, reference compound]
IC50 ([1]; P. falciparum 3D7): > 2 µM

Structure (SMILES): COc1cc2nc(N3CCCN(C)CC3)nc(NC3CCN(C)CC3)c2cc1OC [compound 38]
Pf3D7 IC50 ([1]; P. falciparum 3D7): low Pf3D7 activity
IC50 ([1]; P. falciparum 3D7): > 0.3 µM

Structure (SMILES): COc1cc2nc(N3CCCN(C)CC3)nc(NC3CCN(Cc4ccccc4)CC3)c2cc1OC [compound 1, reference compound]
stage-dependent killing phenotype [2]: erythrocytic stage-independent killing phenotype
H3K4me3 levels [3]: decrease
H3K9me3 levels [4]: decrease
PfSET7 as target (PfSET7): PfSET7 not to be the target

Structure (SMILES): COc1cc2nc(N3CCOCC3)nc(NC3CCN(Cc4ccccc4)C3)c2cc1OC (stereo not drawn) [S15]
G9a/Pf3D7 (G9a [5]; ratio of G9a IC50 to Pf3D7 IC50): > 6.6
IC50 (G9a [5]; [12]): > 1 µM
IC50 (HepG2 cells [7]): 15.3 µM
IC50 ([1]; Tables ST1-ST4, ref 1 (supplement)): 0.152 µM

Structure (SMILES): COc1cc2c(NC3CCN(C)CC3)nc(N3CCCN(C)CC3)nc2cc1OCCCN1CCCCC1 [compound 64]
IC50 ([1]; P. falciparum 3D7): > 2 µM
G9a activity in cells [9]: moderate G9a activity in cells

Structure (SMILES): COc1cc2c(NC3CCN(C)CC3)nc(N3CCCN(C)CC3)nc2cc1OCCCN1CCCC1 [compound 65]
IC50 ([1]; P. falciparum 3D7): > 2 µM
G9a activity in cells [9]: moderate G9a activity in cells

Structure (SMILES): COc1cc2nc(N3CCN(C)CC3)nc(NC3CCN(C)CC3)c2cc1OC [compound 39]
Pf3D7 IC50 ([1]; P. falciparum 3D7): low Pf3D7 activity
IC50 ([1]; P. falciparum 3D7): > 0.3 µM

Structure (SMILES): CCN(CC)CCCC(C)Nc1ccnc2cc(Cl)ccc12 (stereo not drawn) [Chloroquine]
IC50 [11]: 0.008 µM

Structure (SMILES): COc1cc2nc(NCCCN(C)C)nc(NC3CCN(Cc4ccccc4)CC3)c2cc1OC [compound 17]
Pf3D7 IC50 [10]: poor potency against Plasmodium
G9a IC50 (G9a [5]; [12]): good G9a inhibition
IC50 (G9a [5]; [12]): 0.123 µM

Further lines, with some results ahead:

IC50 (G9a [5]; [12]): 0.021 µM
Structure (SMILES): COc1cc2nc(N3CCN(C)CC3)cc(NC3CCN(Cc4ccccc4)CC3)c2cc1OC [compound 89, N-(1-Benzylpiperidin-4-yl)-6,7-dimethoxy-2-(4-methylpiperazin-1-yl)quinolin-4-amine]
stage-dependent killing phenotype [2]: erythrocytic stage-independent killing phenotype
H3K4me3 levels [3]: decrease
H3K9me3 levels [4]: decrease

IC50 (G9a [5]; [12]): 0.591 µM
IC50 (HepG2 cells [8]): > 10 µM
Structure (SMILES): COc1cc2nc(N3CCCCC3)nc(NC3CCN(C)CC3)c2cc1OC [compound 40]

Pf3D7 IC50 [10]: lost activity against Plasmodium
IC50 (G9a [5]; [12]): > 1 µM
Structure (SMILES): COc1cc2c(NC3CCN(C)CC3)nc(NCCCN(C)C)nc2cc1OCc1ccccc1 [compound 63]

IC50 (G9a [5]; [12]): 0.119 µM
Structure (SMILES): COc1cc2nc(N3CCC(OC)CC3)cc(NC3CCN(Cc4ccccc4)CC3)c2cc1OC [compound 90, N-(1-Benzylpiperidin-4-yl)-6,7-dimethoxy-2-(4-methoxypiperidin-1-yl)quinolin-4-amine]
stage-dependent killing phenotype [2]: erythrocytic stage-independent killing phenotype
H3K4me3 levels [3]: decrease
H3K9me3 levels [4]: decrease

IC50 (G9a [5]; [12]): 0.039 µM
Structure (SMILES): CCCCCCOc1cc2nc(NCCCN(C)C)nc(NC3CCN(Cc4ccccc4)CC3)c2cc1OC [compound 75]

IC50 (G9a [5]; [12]): > 10 µM
Structure (SMILES): COc1cc2nc(N3CCN(c4ccccn4)CC3)nc(NC3CCN(C(=O)c4ccccc4)CC3)c2cc1OC [compound 35]

IC50 (G9a [5]; [12]): 0.116 µM
Structure (SMILES): COc1cc2nc(N3CCN(C)CC3)nc(NC3CCN(Cc4cccc(C)c4)CC3)c2cc1OC [compound 18]

IC50 (G9a [5]; [12]): 0.112 µM
Structure (SMILES): COc1cc2nc(N3CCN(C)CC3)nc(NC3CCN(Cc4ccc(F)cc4)CC3)c2cc1OC [compound 21]
